# Test results reported in patent US20170137824A1, “NEW TREATMENT AGAINST INFLUENZA VIRUS” (priority 2014, published 2017).
# Residues, ends and D or L forms follow the SMILES beside them. *: point of attachment. Cbz = O=C(OCc1ccccc1)*
# B1: HDAC6 (Dbm), mouse HDAC6 without the dynein-binding domain (del437-481), expressed in rescued HDAC6 KO MEFs (protein)
# chain: MTSTGQDSSTRQRKSRHNPQSPLQESSATLKRGGKKCAVPHSSPNLAEVKKKGKMKKLSQPAEEDLVVGLQGLDLNPETRVPVGTGLVFDEQLNDFHCLWDDSFPESPERLHAIREQLILEGLLGRCVSFQARFAEKEELMLVHSLEYIDLMETTQYMNEGELRVLAETYDSVYLHPNSYSCACLATGSVLRLVDALMGAEIRNGMAVIRPPGHHAQHNLMDGYCMFNHLAVAARYAQKKHRIQRVLIVDWDVHHGQGTQFIFDQDPSVLYFSIHRYEHGRFWPHLKASNWSTIGFGQGQGYTINVPWNQTGMRDADYIAAFLHILLPVASEFQPQLVLVAAGFDALHGDPKGEMAATPAGFAHLTHLLMGLAGGKLILSLEGGYNLRALAKGVSASLHTLLGDPCPMLESCVVPCASAQTSIYCTLEALEPFWEVLVYDEKMMSHCNLWDNHHPETPQRILRIMCHLEEVGLAARCLILPARPALDSELLTCHSAEYVEHLRTTEKMKTRDLHREGANFDSIYICPSTFACAKLATGAACRLVEAVLSGEVLNGIAVVRPPGHHAEPNAACGFCFFNSVAVAARHAQIIAGRALRILIVDWDVHHGNGTQHIFEDDPSVLYVSLHRYDRGTFFPMGDEGASSQVGRDAGIGFTVNVPWNGPRMGDADYLAAWHRLVLPIAYEFNPELVLISAGFDAAQGDPLGGCQVTPEGYAHLTHLLMGLAGGRIILILEGGYNLASISESMAACTHSLLGDPPPQLTLLRPPQSGALVSISEVIQVHRKYWRSLRLMKMEDKEECSSSRLVIKKLPPTASPVSAKEMTTPKGKVPEESVRKTIAALPGKESTLGQAKSKMAKAVLAQGQSSEQAAKGTTLDLATSKETVGGATTDLWASAAAPENFPNQTTSVEALGETEPTPPASHTNKQTTGASPLQGVTAQQSLQLGVLSTLELSREAEEAHDSEEGLLGEAAGGQDMNSLMLTQGFGDFNTQDVFYAVTPLSWCPHLMAVCPIPAAGLDVSQPCKTCGTVQENWVCLTCYQVYCSRYVNAHMVCHHEASEHPLVLSCVDLSTWCYVCQAYVHHEDLQDVKNAAHQNKFGEDMPHSH
# Experiments:
# X31 strain of IAV [1] = test: Uncoating after endocytosis and fusion at LEs (ammonium chloride block and washout, drugs added 60 min post-uptake); assay type: cell-based, Influenza A X31 virus strain (H3N2); conditions: drug added 60 min post-uptake, kept during 60 min uncoating
# X31 strain of IAV [2] = test: Acid-bypass uncoating assay (fusion at the plasma membrane); assay type: cell-based, Influenza A X31 virus strain (H3N2); conditions: for block of uncoating by type II myosin inhibitors: after acid-bypass at the PM (context); for uncoating blocked/decreased by % following PM bypass: percent reduction of uncoating
molecule,measurement,setting,value
CC(C)C[C@@H](C=O)NC(=O)[C@H](CC(C)C)NC(=O)[C@H](CC(C)C)NC(=O)OCc1ccccc1 [MG132] (Cbz-Leu-Leu-Leu-aldehyde),effect on uncoating when IAV fuses at the LEs,X31 strain of IAV [1],no significant effect
O=S(=O)(c1cccc2c(Cl)cccc12)N1CCCNCC1 [ML-9],block of uncoating by type II myosin inhibitors,X31 strain of IAV [2],more than half
Cc1ccc2c(c1)C(=O)C1(O)CCN(c3ccccc3)C1=N2 (stereo not drawn) [blebbistatin],block of uncoating by type II myosin inhibitors,X31 strain of IAV [2],more than half
N#CC(=C(O)c1ccc(Cl)cc1Cl)c1nc2cc(Cl)ccc2c(=O)[nH]1 [ciliobrevin D],"uncoating following acid-bypass at the PM, reduced to % of control","X31 strain of IAV [2]; remaining uncoating relative to control, siRNA experiments in A549 cells",62%
C=C1[C@@H](C)[C@H]2[C@H](Cc3ccccc3)NC(=O)[C@]23[C@H](OC(C)=O)/C=C/[C@@](C)(O)C(=O)[C@@H](C)C/C=C/[C@H]3[C@@H]1O [cytochalasin D],uncoating blocked/decreased by % following PM bypass,X31 strain of IAV [2],83%
CC(Nc1nc(N2CCCC2)nc2ccccc12)c1ccccc1 (stereo not drawn) [importazole],effect on uncoating when IAV fuses at the LEs,X31 strain of IAV [1],no significant effect
COC(=O)Nc1nc2ccc(C(=O)c3cccs3)cc2[nH]1 [nocodazole],uncoating blocked/decreased by % following PM bypass,X31 strain of IAV [2],35%
B1,"uncoating using PM bypass, relative to WT MEFs",dynein,uncoating in the HDAC6 (Db^m) cells was reduced to 58%% of WT MEFs
same,"uncoating when the virus was allowed to fuse at LEs, compared to WT MEFs",dynein,uncoating was reduced to 67% in HDAC6 (Db^m) cells compared to WT MEFs
